Assays:
barnyard grass [1] = assay: Test Example 3: herbicidal effect by foliage application, Wagner pot (Table 18, symbol H); type: in vivo, barnyard grass (Echinochloa crus-galli); conditions: 320 g/ha
Outline: (§1)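 Plants were sown in alluvial soil held under 0.1–0.5 cm standing water and grown 14 days in a greenhouse at 25–30 °C. An emulsifiable formulation, water-diluted to the set dose, was then sprayed onto the foliage, and effects were scored three weeks later using previously defined criteria.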

corn [2] = assay: Test Example 4: effect on crop by soil treatment (Table 19, symbol c); type: in vivo; conditions: 320 g/ha
Excerpt: (§2) [Test Example 4] Herbicidal Effect Test by Soil Treatment
(§3) Sterilized diluvial soil was placed in a plastic box having a length of 21 cm, a width of 13 cm, and a depth of 7 cm. The seeds of each of southern crabgrass, green foxtail, barnyard grass, wild oat, blackgrass, Italian ryegrass, windgrass, velvetleaf, redroot pigweed, lambsquarters, chickweed, false cleavers, persian speedwell, corn, soybean, rice, wheat, beet, and rapeseed were sowed in a spot-like manner and covered with the soil having a thickness of about 1.5 cm. Subsequently, the emulsion agent of the compound of the present invention prepared according to Formulation Example 2 was diluted with water so as to achieve a predetermined herbicide amount, and the diluted emulsion agent was uniformly applied to the surface of the soil with a small-sized spray. The plastic box was placed in a greenhouse at 25° C. to 30° C. for growth of the plants. Three weeks after the herbicide application, the effect of the herbicide on each plant was evaluated according to the criteria of Test Example 1.

chickweed = assay: Test Example 4: herbicidal effect by soil treatment (Table 19, symbol P); type: in vivo, common chickweed (Stellaria media); conditions: 320 g/ha
Outline: (§4)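 Herbicidal effect was rated 3 weeks after treatment, using the scoring criteria of an earlier test. The compound, formulated as an emulsion and diluted in water to a set herbicide amount, had been sprayed uniformly on soil over freshly sown seeds. Growth took place in a greenhouse at 25° C. to 30° C.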

wheat [3] = assay: Test Example 5: effect on crop by foliage application, plastic box (Table 20, symbol e); type: in vivo; conditions: 320 g/ha, 3 weeks after application
Excerpt: (§5) [Test Example 5] Herbicidal Effect Test by Foliage Application
as §3, with “Thereafter, the plants were grown in a greenhouse at 25° C. to 30° C. After 14-day growth of the plants,” for “Subsequently,”, “a foliage part” for “the surface of the soil”, “spray.” for “spray. The plastic box was placed in a greenhouse at 25° C. to 30° C. for growth of the plants.”

directly sowed rice = assay: Test Example 3: effect on crop by foliage application, Wagner pot (Table 18, symbol b); type: in vivo; conditions: 320 g/ha
Protocol: [Test Example 3] Herbicidal Effect Test by Foliage Application After alluvial soil was placed into 1/10000 are of Wagner pot, water was poured and mixed to form a submerged condition having a water depth of 0.1 cm to 0.5 cm. Seeds of barnyard grass, Chinese sprangletop, rice flat sedge, and rice were sowed and the pot was placed in a greenhouse at 25° C. to 30° C. for growth of the plants. After 14-day growth of the plants, the emulsion agent of the compound of the present invention prepared according to Formulation Example 2 was diluted with water so as to achieve a predetermined herbicide amount, and the diluted emulsion agent was uniformly applied to a foliage part with a small-sized spray. Three weeks after the herbicide application, the effect of the herbicide on each plant was evaluated according to the criteria of Test Example 1.

rice flat sedge = assay: Test Example 3: herbicidal effect by foliage application, Wagner pot (Table 18, symbol E); type: in vivo, rice flat sedge (Cyperus iria); conditions: 320 g/ha
Outline: as §1

blackgrass [4] = assay: Test Example 4: herbicidal effect by soil treatment (Table 19, symbol J); type: in vivo, blackgrass (Alopecurus myosuroides); conditions: 320 g/ha
Outline: as §4

wild oat [5] = assay: Test Example 4: herbicidal effect by soil treatment (Table 19, symbol I); type: in vivo, wild oat (Avena fatua); conditions: 320 g/ha
Outline: as §4

Italian ryegrass [6] = assay: Test Example 5: herbicidal effect by foliage application, plastic box (Table 20, symbol K); type: in vivo, Italian ryegrass (Lolium multiflorum); conditions: foliage application, 320 g/ha, 3 weeks after application
Outline: (§6)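 Foliar spray test: emulsion formulation diluted in water to a set application rate, sprayed onto 14-day-old plants raised in diluvial soil at 25° C to 30° C under glass. Both herbicidal effect and crop effect rated visually three weeks later.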

southern crabgrass [7] = assay: Test Example 5: herbicidal effect by foliage application, plastic box (Table 20, symbol F); type: in vivo, southern crabgrass (Digitaria ciliaris); conditions: foliage application, 320 g/ha, 3 weeks after application
Outline: as §6

rapeseed [8] = assay: Test Example 5: effect on crop by foliage application, plastic box (Table 20, symbol g); type: in vivo; conditions: 320 g/ha, 3 weeks after application
Excerpt: as §5
as §3, with “Thereafter, the plants were grown in a greenhouse at 25° C. to 30° C. After 14-day growth of the plants,” for “Subsequently,”, “a foliage part” for “the surface of the soil”, “spray.” for “spray. The plastic box was placed in a greenhouse at 25° C. to 30° C. for growth of the plants.”

velvetleaf [9] = assay: Test Example 5: herbicidal effect by foliage application, plastic box (Table 20, symbol M); type: in vivo, velvetleaf (Abutilon theophrasti); conditions: foliage application, 320 g/ha, 3 weeks after application
Outline: as §6

persian speedwell [10] = assay: Test Example 5: herbicidal effect by foliage application, plastic box (Table 20, symbol R); type: in vivo, Persian speedwell (Veronica persica); conditions: foliage application, 320 g/ha, 3 weeks after application
Outline: as §6

lambsquarters [11] = assay: Test Example 4: herbicidal effect by soil treatment (Table 19, symbol O); type: in vivo, lambsquarters (Chenopodium album); conditions: 320 g/ha
Outline: as §4

persian speedwell [12] = assay: Test Example 4: herbicidal effect by soil treatment (Table 19, symbol R); type: in vivo, Persian speedwell (Veronica persica); conditions: 320 g/ha
Outline: as §4

blackgrass [13] = assay: Test Example 5: herbicidal effect by foliage application, plastic box (Table 20, symbol J); type: in vivo, blackgrass (Alopecurus myosuroides); conditions: foliage application, 320 g/ha, 3 weeks after application
Outline: as §6

beet [14] = assay: Test Example 4: effect on crop by soil treatment (Table 19, symbol f); type: in vivo; conditions: 320 g/ha
Excerpt: as §2, §3

corn [15] = assay: Test Example 5: effect on crop by foliage application, plastic box (Table 20, symbol c); type: in vivo; conditions: 320 g/ha, 3 weeks after application
Excerpt: as §5
as §3, with “Thereafter, the plants were grown in a greenhouse at 25° C. to 30° C. After 14-day growth of the plants,” for “Subsequently,”, “a foliage part” for “the surface of the soil”, “spray.” for “spray. The plastic box was placed in a greenhouse at 25° C. to 30° C. for growth of the plants.”

southern crabgrass [16] = assay: Test Example 4: herbicidal effect by soil treatment (Table 19, symbol F); type: in vivo, southern crabgrass (Digitaria ciliaris); conditions: 320 g/ha
Outline: as §4

lambsquarters [17] = assay: Test Example 5: herbicidal effect by foliage application, plastic box (Table 20, symbol O); type: in vivo, lambsquarters (Chenopodium album); conditions: foliage application, 320 g/ha, 3 weeks after application
Outline: as §6

barnyard grass [18] = assay: Test Example 5: herbicidal effect by foliage application, plastic box (Table 20, symbol H); type: in vivo, barnyard grass (Echinochloa crus-galli); conditions: foliage application, 320 g/ha, 3 weeks after application
Outline: as §6

velvetleaf [19] = assay: Test Example 4: herbicidal effect by soil treatment (Table 19, symbol M); type: in vivo, velvetleaf (Abutilon theophrasti); conditions: 320 g/ha
Outline: as §4

green foxtail [20] = assay: Test Example 5: herbicidal effect by foliage application, plastic box (Table 20, symbol G); type: in vivo, green foxtail (Setaria viridis); conditions: foliage application, 320 g/ha, 3 weeks after application
Outline: as §6

windgrass [21] = assay: Test Example 4: herbicidal effect by soil treatment (Table 19, symbol L); type: in vivo, windgrass (Apera spica-venti); conditions: 320 g/ha
Outline: as §4

barnyard grass [22] = assay: Test Example 4: herbicidal effect by soil treatment (Table 19, symbol H); type: in vivo, barnyard grass (Echinochloa crus-galli); conditions: 320 g/ha
Outline: as §4

green foxtail [23] = assay: Test Example 4: herbicidal effect by soil treatment (Table 19, symbol G); type: in vivo, green foxtail (Setaria viridis); conditions: 320 g/ha
Outline: as §4

Italian ryegrass [24] = assay: Test Example 4: herbicidal effect by soil treatment (Table 19, symbol K); type: in vivo, Italian ryegrass (Lolium multiflorum); conditions: 320 g/ha
Outline: as §4

beet [25] = assay: Test Example 5: effect on crop by foliage application, plastic box (Table 20, symbol f); type: in vivo; conditions: 320 g/ha, 3 weeks after application
Excerpt: as §5
as §3, with “Thereafter, the plants were grown in a greenhouse at 25° C. to 30° C. After 14-day growth of the plants,” for “Subsequently,”, “a foliage part” for “the surface of the soil”, “spray.” for “spray. The plastic box was placed in a greenhouse at 25° C. to 30° C. for growth of the plants.”

soybean [26] = assay: Test Example 4: effect on crop by soil treatment (Table 19, symbol d); type: in vivo; conditions: 320 g/ha
Excerpt: as §2, §3

redroot pigweed = assay: Test Example 4: herbicidal effect by soil treatment (Table 19, symbol N); type: in vivo, redroot pigweed (Amaranthus retroflexus); conditions: 320 g/ha
Outline: as §4

wild oat [27] = assay: Test Example 5: herbicidal effect by foliage application, plastic box (Table 20, symbol I); type: in vivo, wild oat (Avena fatua); conditions: foliage application, 320 g/ha, 3 weeks after application
Outline: as §6

windgrass [28] = assay: Test Example 5: herbicidal effect by foliage application, plastic box (Table 20, symbol L); type: in vivo, windgrass (Apera spica-venti); conditions: foliage application, 320 g/ha, 3 weeks after application
Outline: as §6

soybean [29] = assay: Test Example 5: effect on crop by foliage application, plastic box (Table 20, symbol d); type: in vivo; conditions: 320 g/ha, 3 weeks after application
Excerpt: as §5
as §3, with “Thereafter, the plants were grown in a greenhouse at 25° C. to 30° C. After 14-day growth of the plants,” for “Subsequently,”, “a foliage part” for “the surface of the soil”, “spray.” for “spray. The plastic box was placed in a greenhouse at 25° C. to 30° C. for growth of the plants.”

rapeseed [30] = assay: Test Example 4: effect on crop by soil treatment (Table 19, symbol g); type: in vivo; conditions: 320 g/ha
Excerpt: as §2, §3

Chinese sprangletop = assay: Test Example 3: herbicidal effect by foliage application, Wagner pot (Table 18, symbol D); type: in vivo, chinese sprangletop (Leptochloa chinensis); conditions: 320 g/ha
Outline: as §1

wheat [31] = assay: Test Example 4: effect on crop by soil treatment (Table 19, symbol e); type: in vivo; conditions: 320 g/ha
Excerpt: as §2, §3

Cc1nn(C)c(=O)c(-c2c(-c3ccc(OC(F)F)cc3)sc3ccc(F)cc23)c1O [Compound No. 2-042, 4-(2-(4-(difluoromethoxy)phenyl)-5-fluorobenzo[b]thiophen-3-yl)-5-hydroxy-2,6-dimethylpyridazin-3(2H)-one]
herbicidal effect on H (barnyard grass), rating 0-5 (barnyard grass [1]): 5 (Herbicidal rate of 90% or more (almost completely withered)) | effect rating on crop, c: corn (corn [2]): 0 (Herbicidal rate of 5% or less (almost no effect)) | herbicidal effect rating, P: chickweed (chickweed): 4 (Herbicidal rate of 70% or more and less than 90%) | effect on wheat (e) (wheat [3]): 1 (Herbicidal rate of 5% or more and less than 20%) | effect on crop b (directly sowed rice), rating 0-5 (directly sowed rice): 1 (Herbicidal rate of 5% or more and less than 20%) | herbicidal effect on E (rice flat sedge), rating 0-5 (rice flat sedge): 5 (Herbicidal rate of 90% or more (almost completely withered)) | herbicidal effect rating, J: blackgrass (blackgrass [4]): 3 (Herbicidal rate of 40% or more and less than 70%) | herbicidal effect rating, I: wild oat (wild oat [5]): 0 (Herbicidal rate of 5% or less (almost no effect)) | effect on Italian ryegrass (K) (Italian ryegrass [6]): 5 (Herbicidal rate of 90% or more (almost completely withered)) | effect on southern crabgrass (F) (southern crabgrass [7]): 4 (Herbicidal rate of 70% or more and less than 90%) | effect on rapeseed (g) (rapeseed [8]): 5 (Herbicidal rate of 90% or more (almost completely withered)) | effect on velvetleaf (M) (velvetleaf [9]): 5 (Herbicidal rate of 90% or more (almost completely withered)) | effect on persian speedwell (R) (persian speedwell [10]): 5 (Herbicidal rate of 90% or more (almost completely withered)) | herbicidal effect rating, O: lambsquarters (lambsquarters [11]): 5 (Herbicidal rate of 90% or more (almost completely withered)) | herbicidal effect rating, R: persian speedwell (persian speedwell [12]): 5 (Herbicidal rate of 90% or more (almost completely withered)) | effect on blackgrass (J) (blackgrass [13]): 5 (Herbicidal rate of 90% or more (almost completely withered)) | effect rating on crop, f: beet (beet [14]): 1 (Herbicidal rate of 5% or more and less than 20%) | effect on corn (c) (corn [15]): 0 (Herbicidal rate of 5% or less (almost no effect)) | herbicidal effect rating, F: southern crabgrass (southern crabgrass [16]): 3 (Herbicidal rate of 40% or more and less than 70%) | melting point: 164 to 165 °C | effect on lambsquarters (O) (lambsquarters [17]): 5 (Herbicidal rate of 90% or more (almost completely withered)) | effect on barnyard grass (H) (barnyard grass [18]): 5 (Herbicidal rate of 90% or more (almost completely withered)) | herbicidal effect rating, M: velvetleaf (velvetleaf [19]): 5 (Herbicidal rate of 90% or more (almost completely withered)) | effect on green foxtail (G) (green foxtail [20]): 5 (Herbicidal rate of 90% or more (almost completely withered)) | herbicidal effect rating, L: windgrass (windgrass [21]): 3 (Herbicidal rate of 40% or more and less than 70%) | herbicidal effect rating, H: barnyard grass (barnyard grass [22]): 4 (Herbicidal rate of 70% or more and less than 90%) | herbicidal effect rating, G: green foxtail (green foxtail [23]): 5 (Herbicidal rate of 90% or more (almost completely withered)) | herbicidal effect rating, K: Italian ryegrass (Italian ryegrass [24]): 5 (Herbicidal rate of 90% or more (almost completely withered)) | effect on beet (f) (beet [25]): 5 (Herbicidal rate of 90% or more (almost completely withered)) | effect rating on crop, d: soybean (soybean [26]): 0 (Herbicidal rate of 5% or less (almost no effect)) | herbicidal effect rating, N: redroot pigweed (redroot pigweed): 5 (Herbicidal rate of 90% or more (almost completely withered)) | effect on wild oat (I) (wild oat [27]): 3 (Herbicidal rate of 40% or more and less than 70%) | effect on windgrass (L) (windgrass [28]): 5 (Herbicidal rate of 90% or more (almost completely withered)) | effect on soybean (d) (soybean [29]): 3 (Herbicidal rate of 40% or more and less than 70%) | effect rating on crop, g: rapeseed (rapeseed [30]): 5 (Herbicidal rate of 90% or more (almost completely withered)) | herbicidal effect on D (Chinese sprangletop), rating 0-5 (Chinese sprangletop): 3 (Herbicidal rate of 40% or more and less than 70%) | effect rating on crop, e: wheat (wheat [31]): 0 (Herbicidal rate of 5% or less (almost no effect))

— US20230085307A1, “PYRIDAZINONE COMPOUND AND HERBICIDE” (NISSAN CHEMICAL CORPORATION, priority 2019, published 2023)
